Consider seven compounds from article PMC9549030, “Structural basis for specific inhibition of the deubiquitinase UCHL1” (Nature Communications, 2022).

Data set [1] concerns DUBs in HEK293 lysate. Nature of the data set: Activity-based protein profiling in the lysate with Ub-VS competition. It counts as binding, human. Particulars: 1 µM, 1 h. On the procedure:
Cells (4 × 10^6) were seeded in 10 cm dishes and grown to 90% confluency. The medium was aspirated, cells were washed with ice-cold PBS, treated with 600 µL ABP lysis buffer (1% (v/v) IGEPAL, 50 mM Tris, 150 mM NaCl, 5% glycerol, pH 8, cOmplete protease inhibitor cocktail), and incubated on ice for 15 min. The lysed cells were scrapped off the dish, cleared by centrifugation, and the protein concentration was determined via a Bradford assay. […] Each compound was diluted to a 2x concentration in PBS buffer from a 10 mM stock in DMSO (final concentration: 1 µM). Then each compound dilution or a DMSO dilution was mixed with cell lysate and incubated for one hour at room temperature. […] Samples were resolved by SDS-PAGE using a 4–12% Bis-Tris gel (Invitrogen, NuPAGE) with MES SDS running buffer for 50 min at 180 V. Fluorescence was read out using the Alexa564 (λex/em 520–545/577–613 nm, for TAMRA) and Alexa680 (λex/em 650–675/700–730 nm, for the PageRuler Prestained NIR Protein Ladder (Thermo Scientific)) channels on a ChemiDoc MP Imaging System (Bio-Rad).

For data set [2], the target named is T1, UCHL1 (Homo sapiens, UniProt P09936).
T1 sequence (P09936 1-223): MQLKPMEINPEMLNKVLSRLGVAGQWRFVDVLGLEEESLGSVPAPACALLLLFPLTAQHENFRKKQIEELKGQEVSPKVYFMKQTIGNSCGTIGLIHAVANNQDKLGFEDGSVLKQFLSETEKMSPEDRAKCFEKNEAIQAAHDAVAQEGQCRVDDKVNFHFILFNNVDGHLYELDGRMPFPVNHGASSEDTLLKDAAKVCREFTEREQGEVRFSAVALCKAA
Kind of data set: Ub-Rhodamine (Ubiquitin rhodamine cleavage) assay. It is filed as biochemical. Particulars: 1 h preincubation; mean ± SD of independent experiments; read-out: IC50 (UCHL1).

Data set [3] addresses T1, UCHL1. Nature of the data set: kobs/[I] kinetic assay. It is filed as biochemical. Particulars: mean ± SD of independent experiments. The protocol:
Reactions were performed in 384 well plates as above. Compound (5 µL of a 4x stock in reaction buffer H supplemented with 2.5 mM TCEP; varying final concentrations ranging from 78 nM to 200 µM) and Ub-Rhodamine 110 (5 µL of a 4x stock in buffer H supplemented with 2.5 mM TCEP; final concentration: 50 nM) were mixed in a 1:1 ratio.

Data set [4] addresses T1, UCHL1. Nature of the data set: Thermal shift assay. It counts as binding. Particulars: Supplementary Fig. 5c. On the procedure:
Reactions were performed in white 96-well PCR plates (Bio-Rad). UCHL1 was diluted in thermal shift buffer (1x PBS, 5 mM DTT) to a 4x concentration of 4 µM. The protein was then mixed with 4x compound dissolved in thermal shift buffer in a 1:1 ratio. To each well was added 20 µL of DUB-Inhibitor solution, followed by 1 h incubation time. To each well was then added 20 µL 4x SYPRO Orange in thermal shift buffer. After sealing the plates with a transparent film, thermal denaturation (gradient: 20–90 °C; Increment: 0.3 °C, hold for 5 s before read) was performed and monitored by a Bio-Rad Connect cycler.

For data set [5], the system named is T2, UCHL1 in HEK293 cells.
T2 construct: Western blot analysis of endogenous UCHL1 labeled with HA-Ub-VS after treatment of HEK293 cells; endogenous in cells; host or cells: HEK293
Kind of data set: Cellular Ub-probe (HA-Ub-VS) competition, inhibition of cellular UCHL1. It counts as cell-based, human. The protocol: (§1) Proteins were transferred to a polyvinylidene fluoride (PVDF, only experiments in Fig. 4e and Supplementary Fig. 7e, f) or nitrocellulose (all other experiments) membrane using a Trans-Blot Turbo system (Bio-Rad, 1.3 A, 25 V, 10 min). The membranes were blocked with 5% (m/v) nonfat milk in PBS-T buffer and incubated with indicated primary antibodies (anti-UCHL1, 1:1000, Cell Signaling, D3T2E; anti-PARK7, 1:1000, Cell Signaling, D29E5; anti-Tubulin, 1:4000, Sigma, T6199; anti-Hemagglutinin, 1:1000, BioLegend, 16B12; anti-flag, 1:2000, Sigma, F3165; anti-Ubiquitin, 1:1000, Cell Signaling, P4D1; anti-Ubiquitin, 1:300, Santa Cruz, P4D1, sc-8017; anti-UCHL3, 1:1000, Proteintech, 12384-1-AP) overnight. Then the membranes were incubated with the respective secondary antibody (anti-mouse,1:5000, Sigma, NXA931; anti-rabbit, 1:5000, Sigma, GENA934) coupled to horseradish peroxidase. The chemiluminescent reaction was initiated using a Clarity Western ECL substrate (Bio-Rad) and images were taken on a ChemiDoc MP Imaging System (Bio-Rad).
(§2) The total protein concentration was adjusted to 2 mg/ml by diluting each sample with ABP lysis buffer. A final concentration of 1 µM HA-Ub-VS probe was added, followed by incubation for 30 min at 37 °C. The labeling reaction was quenched by the addition of 4x LDS sample buffer. The samples were separated via SDS-PAGE and further analyzed via western blotting as described above.

The subject of data set [6] is HEK293 cells. Nature of the data set: Cell growth and viability assay (confluency, propidium iodide). It is filed as cell-based, human. Particulars: 1.3 and 5 µM. On the procedure: HEK293 cells (5 × 10^3/well) or U-87 MG cells (5.5 × 10^3/well) were seeded into 96-well dishes. The following day cells were treated with the compounds at varying concentrations and propidium iodide at 20 µg/mL. The plates were immediately transferred to the Incucyte S3. Bright-field and red fluorescent images were automatically captured at 1 or 2 h intervals for 72 h with 10x magnification. The confluency of cells and the number of PI-positive cells was determined using the Incucyte masking program.

The target of data set [7] is T3, UCHL3 (Homo sapiens, UniProt P15374).
T3 sequence (P15374 1-230): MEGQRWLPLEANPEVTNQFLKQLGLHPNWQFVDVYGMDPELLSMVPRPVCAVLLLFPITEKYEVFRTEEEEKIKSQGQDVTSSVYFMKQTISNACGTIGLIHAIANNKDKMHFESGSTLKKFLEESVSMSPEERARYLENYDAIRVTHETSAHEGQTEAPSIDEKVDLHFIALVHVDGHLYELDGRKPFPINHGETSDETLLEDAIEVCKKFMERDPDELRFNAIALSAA
Kind of data set: Ub-Rhodamine (Ubiquitin rhodamine cleavage) assay. Particulars: Supplementary Fig. 10d; 5 mM DTT in buffer H; read-out: IC50 (UCHL3 wt). It is filed as biochemical.

Data set [8] addresses T4, UCHL3 A11I (Homo sapiens, UniProt P15374, A11I).
T4 sequence (P15374 1-230 A11I): T3 sequence (P15374 1-230) with A11I
Nature of the data set: Ub-Rhodamine (Ubiquitin rhodamine cleavage) assay. It is filed as biochemical. Particulars: Supplementary Fig. 10d; 5 mM DTT in buffer H; read-out: IC50 (UCHL3 A11I).

Data set [9] has as its target T5, UCHL3 L168F (Homo sapiens, UniProt P15374, L168F).
T5 sequence (P15374 1-230 L168F): T3 sequence (P15374 1-230) with L168F
Nature of the data set: Ub-Rhodamine (Ubiquitin rhodamine cleavage) assay. It is filed as biochemical. Particulars: Supplementary Fig. 10d; 5 mM DTT in buffer H; read-out: IC50 (UCHL3 L168F).

Data set [10] has as its target T6, UCHL3 A11I+L168F (Homo sapiens, UniProt P15374, A11I/L168F).
T6 sequence (P15374 1-230 A11I/L168F): T3 sequence (P15374 1-230) with A11I, L168F
Kind of data set: Ub-Rhodamine (Ubiquitin rhodamine cleavage) assay. It counts as biochemical. Particulars: Supplementary Fig. 10d; 5 mM DTT in buffer H; read-out: IC50 (UCHL3 A11I+L168F).

Data set [11] relates to T7, UCHL1 in U-87 MG cells.
T7 construct: Western blot analysis of endogenous UCHL1 labeled with HA-Ub-VS after treatment of U-87 MG cells; endogenous in cells; host or cells: U-87 MG
Kind of data set: Cellular Ub-probe (HA-Ub-VS) competition, inhibition of cellular UCHL1. Particulars: 1 or 24 h. It counts as cell-based, human. On the procedure:
as §1, §2

By IC50 is commonly meant the concentration that inhibits the measured activity by half. Broadly, the kinact/KI is the maximal inactivation rate divided by the concentration that gives half of it.

Changes are numbered by the printed parent chain.

Regarding `C#CCCC(=O)NCc1ccc(-c2cccc(Oc3ccnc(C#N)n3)c2)cc1` [CG017], in data set [1], the “DUB engagement (Ub-VS competitive labeling)” value is “did not show any covalent-irreversibly bound proteins at all”.
Same read-out and setting: the result for `C#CCCC(=O)Nc1cccc(/C=C/c2ccc3c(C#N)c(N)[nH]c3c2)c1` [CG041] reads “did not show any covalent-irreversibly bound proteins at all”; that for `C#CCn1cc(-c2ccc(C(=O)N[C@@H]3CCN(C#N)C3)c(F)c2)cn1` [CG50R], “did not show DUB engagement”.
As for `C#CCn1ccc2c(-c3cccc4c3CCN4C(=O)[C@@H]3CCCN3C#N)ccnc21` [CG173], the IC50 in data set [2] stood at 0.043 ± 0.019 µM. Besides, the second-order inactivation constant (kinact/KI) in data set [3] is 597 ± 209 M⁻¹ s⁻¹. The “protein stabilization of UCHL1 compared with GK13S” value in data set [4] was “reduced protein stabilization”. The “DUB engagement (Ub-VS competitive labeling)” value in data set [1] is “Ubiquitin-probe competitive band of approx. 30 kDa”. In addition, the entries for the “inhibition of cellular UCHL1” value in [5] (after 1 h (Supplementary Fig. 5f)) and in [5] (after 24 h incubation (Supplementary Fig. 5f)) were “very low degree of inhibition” and “no inhibition of cellular UCHL1 at all”, respectively. The “apoptosis and growth arrest” value in data set [6] was “strong induction of apoptosis and growth arrest”.
Take `NC(=O)CI` [IAA, iodoacetamide, reference compound]: the IC50 in data set [7] was 1700 ± 100 µM; in [8], 1900 ± 100 µM; in data set [9], 2000 ± 100 µM; in data set [10] it was 2200 ± 100 µM.
For `CC(=O)O/N=C1\C(=O)N(Cc2cc(Cl)ccc2Cl)c2ccc(Cl)cc21` [LDN-57444, reference compound], the “inhibition of cellular UCHL1” value in [11] is “does not lead to inhibition of cellular UCHL1”.
In the case of `C#CCN1CCN(CCOc2ccc(C(CCC)NC(=O)/C(C#N)=C/c3cccc(Br)n3)cc2)CC1` (stereo not shown) [MS037], the “DUB engagement (Ub-VS competitive labeling)” value in [1] is recorded as “did not show DUB engagement”.
